Each molecule was assayed against T1, Recombinant mouse PD-L1 (Mus musculus, UniProt Q9EP73) (assay: Rescue of mouse splenocyte proliferation in the presence of recombinant PD-L1 (CFSE proliferation assay)). Conditions: 100 nM compound; anti-CD3/CD28 stimulated CFSE-labelled mouse splenocytes + PD-L1, 72 h; normalised to stimulated splenocyte proliferation as 100%; read-out: Percent rescue of proliferation (@100 nM compound concentration).
T1 construct: Fc (Fc chimera); purchased R&D Systems 1019-B7-100
T1 sequence (Q9EP73 with tags, fused parts or gaps limits assumed): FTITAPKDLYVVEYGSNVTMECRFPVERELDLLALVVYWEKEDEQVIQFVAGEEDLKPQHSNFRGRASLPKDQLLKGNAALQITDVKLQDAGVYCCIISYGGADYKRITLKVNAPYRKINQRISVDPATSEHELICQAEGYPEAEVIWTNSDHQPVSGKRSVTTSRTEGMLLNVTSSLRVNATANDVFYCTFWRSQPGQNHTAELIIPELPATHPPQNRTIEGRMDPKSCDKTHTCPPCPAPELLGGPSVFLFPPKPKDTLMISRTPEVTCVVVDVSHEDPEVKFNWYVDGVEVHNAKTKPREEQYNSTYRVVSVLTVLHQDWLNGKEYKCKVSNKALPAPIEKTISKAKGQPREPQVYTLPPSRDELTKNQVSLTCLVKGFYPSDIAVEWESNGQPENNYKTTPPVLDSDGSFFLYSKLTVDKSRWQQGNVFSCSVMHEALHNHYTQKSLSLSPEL
Type: cell-based
Experimental: Rescue of Mouse Splenocyte Proliferation in the Presence of Recombinant PD-L1
Recombinant mouse PD-L1 (rm-PDL-1, cat no: 1019-B7-100; R&D Systems) were used as the source of PD-L1.
Mouse splenocytes harvested from 6-8 weeks old C57 BL6 mice; RPMI 1640 (GIBCO, Cat #11875); DMEM with high glucose (GIBCO, Cat #D6429); Fetal Bovine Serum └Hyclone, Cat #SH30071.03┘; Penicillin (10000 unit/mL)-Streptomycin(10,000 μg/mL) Liquid (GIBCO, Cat #15140-122); MEM Sodium Pyruvate solution 100 mM (100×), Liquid (GIBCO, Cat #11360); Nonessential amino acid (GIBCO, Cat #11140); L-Glutamine (GIBCO, Cat #25030); Anti-CD3 antibody (eBiosciences—16-0032); Anti-CD28 antibody (eBiosciences—16-0281); ACK lysis buffer (1 mL) (GIBCO, Cat #-A10492); Histopaque (density-1.083 gm/mL) (SIGMA 10831); Trypan blue solution (SIGMA-T8154); 2 mL Norm Ject Luer Lock syringe-(Sigma 2014-12); 40 μm nylon cell strainer (BD FALCON 35230); Hemacytometer (Bright line-SIGMA Z359629); FACS Buffer (PBS/0.1% BSA): Phosphate Buffered Saline (PBS) pH 7.2 (HiMedia TS1006) with 0.1% Bovine Serum Albumin (BSA) (SIGMA A7050) and sodium azide (SIGMA 08591); 5 mM stock solution of CFSE: CFSE stock solution was prepared by diluting lyophilized CFSE with 180 μL of Dimethyl sulfoxide (DMSO C2H6SO, SIGMA-D-5879) and aliquoted in to tubes for further use. Working concentrations were titrated from 10 μM to 1 μM. (eBioscience-650850-85); 0.05% Trypsin and 0.02% EDTA (SIGMA 59417C); 96-well format ELISA plates (Corning CLS3390); BD FACS caliber (E6016); Recombinant mouse B7-H1/PDL1 Fc Chimera, (rm-PD-L1 cat no: 1019-B7-100).
Splenocytes harvested in a 50 mL falcon tube by mashing mouse spleen in a 40 μm cell strainer were further treated with 1 mL ACK lysis buffer for 5 min at room temperature. After washing with 9 mL of RPMI complete media, cells were re-suspended in 3 mL of 1×PBS in a 15 mL tube. 3 mL of Histopaque was added carefully to the bottom of the tube without disturbing overlaying splenocyte suspension. After centrifuging at 800×g for 20 min at room temperature, the opaque layer of splenocytes was collected carefully without disturbing/mixing the layers. Splenocytes were washed twice with cold 1×PBS followed by total cell counting using Trypan Blue exclusion method and used further for cell based assays.
Splenocytes were cultured in RPMI complete media (RPMI+10% fetal bovine serum+1 mM sodium pyruvate+10,000 units/mL penicillin and 10,000 μg/mL streptomycin) and maintained in a CO2 incubator with 5% CO2 at 37° C.
CFSE is a dye that passively diffuses into cells and binds to intracellular proteins. 1×10^6 cells/mL of harvested splenocytes were treated with 5 μM of CFSE in pre-warmed 1×PBS/0.1% BSA solution for 10 min at 37° C. Excess CFSE was quenched using 5 volumes of ice-cold culture media to the cells and incubated on ice for 5 min CFSE labelled splenocytes were further given three washes with ice cold complete RPMI media. CFSE labelled 1×10^5 splenocytes added to wells containing either MDA-MB231 cells (1×10^5 cells cultured in high glucose DMEM medium) or recombinant human PDL-1 (100 ng/mL) and test compounds. Splenocytes were stimulated with anti-mouse CD3 and anti-mouse CD28 antibody (1 μg/mL each) and the culture was further incubated for 72 h at 37° C. with 5% CO2. Cells were harvested and washed thrice with ice cold FACS buffer and % proliferation was analysed by flow cytometry with 488 nm excitation and 521 nm emission filters.
Percent splenocyte proliferation was analysed using cell quest FACS program and percent rescue of splenocyte proliferation by compound was estimated after deduction of % background proliferation value and normalising to % stimulated splenocyte proliferation (positive control) as 100%.
Stimulated splenocytes: Splenocytes+anti-CD3/CD28 stimulation.
Background proliferation: Splenocytes+anti-CD3/CD28+PD-L1.
Compound proliferation: Splenocytes+anti-CD3/CD28+PD-L1+Compound. […]

SMILES	activation at 0.1 µM [%]
CC(O)[C@@H]1NC(=O)COCCOCCNC(=O)[C@H](C(C)O)NC(=O)N[C@@H](C(C)O)C(=O)NNC1=O (some centres unmarked) [Compound 12]	91
NCCCC[C@@H]1NC(=O)COCCOCCNC(=O)[C@H](CCCCN)NC(=O)N[C@@H](CCCCN)C(=O)NNC1=O [Compound 5]	24
CC(O)[C@@H]1NC(=O)N[C@@H](CC(N)=O)C(=O)NNC(=O)[C@H](CCCCN)NC(=O)COCCOCCNC1=O (some centres unmarked) [Compound 2]	57
O=C(O)C[C@@H]1NC(=O)COCCOCCNC(=O)[C@H](CC(=O)O)NC(=O)N[C@@H](CC(=O)O)C(=O)NNC1=O [Compound 10]	53
O=C1COCCOCCNC(=O)[C@H](Cc2ccc(O)cc2)NC(=O)N2CCCC2C(=O)NNC(=O)[C@H](Cc2ccc(O)cc2)N1 (some centres unmarked) [Compound 1]	76
CCC(C)[C@@H]1NC(=O)N[C@@H](CCC(=O)O)C(=O)NCCOCCOCC(=O)N[C@@H](CCC(N)=O)C(=O)NNC1=O (some centres unmarked) [Compound 15]	40
CC(O)[C@@H]1NC(=O)N[C@@H](Cc2ccccc2)C(=O)NNC(=O)[C@H](CO)NC(=O)COCCOCCNC1=O (some centres unmarked) [Compound 3]	66
CC(O)[C@@H]1NC(=O)N[C@@H](Cc2ccccc2)C(=O)NNC(=O)[C@H](CCCCN)NC(=O)COCCOCCNC1=O (some centres unmarked) [Compound 16]	30
CCC(C)[C@@H]1NC(=O)N[C@@H](C(C)O)C(=O)NCCOCCOCC(=O)N[C@@H](CO)C(=O)NNC1=O (some centres unmarked) [Compound 7]	23
CC(O)[C@@H]1NC(=O)N[C@@H](CCCCN)C(=O)NNC(=O)[C@H](CO)NC(=O)COCCOCCNC1=O (some centres unmarked) [Compound 6]	40
O=C1COCCOCCNC(=O)[C@H](CO)NC(=O)N[C@@H](CO)C(=O)NNC(=O)[C@H](CO)N1 [Compound 11]	17
CC(C)C[C@@H]1NC(=O)N[C@@H](CC(N)=O)C(=O)NNC(=O)[C@H](CO)NC(=O)COCCOCCNC1=O [Compound 13]	53
CC(O)[C@@H]1NC(=O)N[C@@H](CC(N)=O)C(=O)NNC(=O)[C@H](CC(=O)O)NC(=O)COCCOCCNC1=O (some centres unmarked) [Compound 9]	46
CCC(C)[C@@H]1NC(=O)N[C@@H](CCC(N)=O)C(=O)NCCOCCOCC(=O)N[C@@H](CCC(=O)O)C(=O)NNC1=O (some centres unmarked) [Compound 17]	38

— patent US20180044350A1, “THERAPEUTIC CYCLIC COMPOUNDS AS IMMUNOMODULATORS” (priority 2015, published 2018)
